Experimental data published in PubChem BioAssay AID2742 (NMMLSC, 2010).
Activity calls are given as the source filed them.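 Rule for the calls: active = fitted half-maximal concentration for changing background-corrected GFP signal at or below a set limit; inactive = the rest.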

experiment: modulators of MEP2-GFP levels in yeast, dose response, S. cerevisiae, flow cytometry GFP, MLPCN hits (AID 2742);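 note: GFP tag reports level of MEP2 protein as a downstream target of TOR signalling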; conditions: S. cerevisiae MEP2-GFP strain, flow cytometry fluorescence, 3 h; at 33 µM (top of the series)

SMILES | GFP fluorescence (kMESF), higher = increase
CCOc1cc(C=C2C(=O)c3ccccc3C2=O)ccc1OCC(=O)Nc1ccc(C)cc1 | 1.75 kMESF (inactive)
O=[N+]([O-])c1c(Nc2ccccn2)cc(Cl)c2nonc12 | 21.3 kMESF (inactive)
Cc1ccc(C(=O)NNC(=S)NC(=O)c2ccco2)cc1 | 4.91 kMESF (inactive)
Cc1c(Cc2ccccc2)c(NCCN(C)C)n2c(nc3ccccc32)c1C#N | 4.39 kMESF (inactive)
Cc1cccc(C(=O)NC(=S)NNC(=O)Cc2ccccc2)c1 | 3.56 kMESF (inactive)
COc1ccc(C(=O)NNC(=S)NC(=O)/C=C/c2cccs2)cc1 | 5.04 kMESF (inactive)
O=c1cc(CSc2ccc(Cl)cc2)nc(-c2ccccn2)[nH]1 | 3.46 kMESF (inactive)
CC(C)[C@]1(c2ccc(Cl)cc2)ON(c2ccccc2C(F)(F)F)C1=O | 2.37 kMESF (inactive)
Cc1cccc(OCCN2CSC(=S)N(C)C2)c1 | 3.71 kMESF (inactive)
Cc1[nH]n(-c2ncc(-c3ccccc3)s2)c(=O)c1C(c1ccc(Cl)cc1)C(C#N)C#N (configuration not stated) | 4.02 kMESF (inactive)
O=C(Oc1oc(-c2ccco2)nc1C=Nc1ccccc1)c1ccoc1 | 4.11 kMESF (inactive)
CCN(CC)C(=O)Oc1ccnc2cc(Cl)ccc12 | 11.7 kMESF (inactive)
COc1ccc(/C=C/C(=O)c2cc(Br)ccc(=O)c2O)cc1 | -51.6 kMESF (inactive)
Cc1ccc(S(=O)(=O)Cc2cc(F)c([N+](=O)[O-])cc2[N+](=O)[O-])cc1 | 0.65 kMESF (inactive)
C#CCOc1c(Br)cc(/C=C2/C(=O)ON=C2C)cc1OC | 3.64 kMESF (inactive)
Oc1c(Br)cc(Br)cc1C=Nc1ccc2c(c1)OCO2 | 5.35 kMESF (inactive)
Fc1cccc(Nc2ncnc3c2cnn3-c2ccccc2)c1 | 2.97 kMESF (inactive)
Cc1ccc(N=c2ssnc2Cl)cc1 | 4.79 kMESF (inactive)
Cc1cc(C)c(S(=O)(=O)N2CCC(C(=O)NCc3ccc(Cl)cc3Cl)CC2)c(C)c1 | 4.68 kMESF (inactive)
Cc1ccc(S(=O)(=O)/N=C(\Sc2ccccc2)c2ccccc2)cc1 | 3.88 kMESF (inactive)
O=[N+]([O-])c1cc(S(=O)(=O)C(F)(F)F)ccc1Sc1nc2ccccc2s1 | 4.67 kMESF (inactive)

SMILES | GFP fluorescence (kMESF), higher = increase
O=C(NNC(=S)NC(=O)C12CC3CC(CC(C3)C1)C2)c1ccncc1 | 6.72 kMESF (inactive)
COc1ccc(C2=CC(=O)N(Nc3ccccc3)C2=O)cc1 | 6.84 kMESF (inactive)
CC[C@@]1(c2ccccc2OC)ON(c2ccccc2C(F)(F)F)C1=O | 3.17 kMESF (inactive)
CC(C)Oc1ccc(C(=O)/C=C2/C(=O)Nc3ccccc32)cc1 | 3.75 kMESF (inactive)
Oc1c(I)cc(I)c2cccnc12 | 4.67 kMESF (inactive)
Cc1ccccc1[C@]1(C)ON(c2ccccc2C(F)(F)F)C1=O | 2.17 kMESF (inactive)
N#C/C(=C\c1cc(Br)ccc1F)C(=O)NC1CC1 | 6.77 kMESF (inactive)
COc1cc(SSc2cc(OC)cc([N+](=O)[O-])c2N)c(N)c([N+](=O)[O-])c1 | 5.29 kMESF (inactive)
Oc1ccc(COCc2ccccc2)c2cccnc12 | 6.91 kMESF (inactive)
Oc1ccc2ccccc2c1/C=N/Nc1nnc(-c2ncc[nH]2)c2ccccc12 | -21.2 kMESF (inactive)
CC(=O)N(C(C)=O)c1ncnc2c1c(-c1ccc(Cl)cc1)nn2C(C)(C)C | 1.85 kMESF (inactive)
CC(Oc1ccc(Br)cc1)C(=O)Nc1nc(-c2ccccn2)cs1 (configuration not stated) | 4.68 kMESF (inactive)
O=C(NC(=S)NNC(=O)c1cnccn1)c1ccc(F)cc1 | 4.26 kMESF (inactive)
O=C(C#Cc1ccccc1)c1cccc([N+](=O)[O-])c1 | 4.67 kMESF (inactive)
CCN1/C(=C/C(C)=C/c2sc3ccccc3[n+]2CC)Sc2ccccc21 | 4.91 kMESF (inactive)
COc1ccc(/C=C2/C(=O)ON=C2c2ccccc2)cc1OC | 4.51 kMESF (inactive)
CCC(=O)Oc1oc(-c2ccccc2)nc1C=Nc1ccccc1OC | 2.69 kMESF (inactive)
CN1C(=O)/C(=N\OC(=O)c2cccc3ccccc23)c2ccccc21 | 3.68 kMESF (inactive)
CC(C)C(=O)NC(c1cccs1)c1cc([N+](=O)[O-])c2cccnc2c1O (configuration not stated) | 3.41 kMESF (inactive)
Cc1cccc(C)c1NC(=O)C(Cl)C(=O)c1ccccc1 (configuration not stated) | 4.47 kMESF (inactive)
N#Cc1nccnc1S(=O)(=O)c1cccs1 | 2.29 kMESF (inactive)
